Values joined by “and” are separate entries in the source; they are usually repeats but may differ in a detail not shown here. Identical values can stand only once.
Tests used:
Caco-2 cells = test: Caco-2 permeability assay; settings: 5 μM; for Papp_AB: Caco-2, apical to basolateral; for Papp_BA: Caco-2, basolateral to apical
FGFR1 = FGFR1 (Homo sapiens, UniProt P11362); test: biochemical; settings: read-out: % enzyme activity, 1 μM; Run 1, Run 2
PKCa = PKCa (Homo sapiens, UniProt P17252); settings: 1 μM; Run 1, Run 2
HIPK1 = HIPK1 (Homo sapiens, UniProt Q86Z02); test: biochemical; settings: read-out: % enzyme activity, 1 μM; Run 1, Run 2
MAPKAPK5/PRAK = biological target: T1, MAPKAPK5/PRAK (Homo sapiens, UniProt Q8IW41); test: biochemical; settings: read-out: % enzyme activity, 1 μM; Run 1, Run 2
T1 sequence (Q8IW41 1-473): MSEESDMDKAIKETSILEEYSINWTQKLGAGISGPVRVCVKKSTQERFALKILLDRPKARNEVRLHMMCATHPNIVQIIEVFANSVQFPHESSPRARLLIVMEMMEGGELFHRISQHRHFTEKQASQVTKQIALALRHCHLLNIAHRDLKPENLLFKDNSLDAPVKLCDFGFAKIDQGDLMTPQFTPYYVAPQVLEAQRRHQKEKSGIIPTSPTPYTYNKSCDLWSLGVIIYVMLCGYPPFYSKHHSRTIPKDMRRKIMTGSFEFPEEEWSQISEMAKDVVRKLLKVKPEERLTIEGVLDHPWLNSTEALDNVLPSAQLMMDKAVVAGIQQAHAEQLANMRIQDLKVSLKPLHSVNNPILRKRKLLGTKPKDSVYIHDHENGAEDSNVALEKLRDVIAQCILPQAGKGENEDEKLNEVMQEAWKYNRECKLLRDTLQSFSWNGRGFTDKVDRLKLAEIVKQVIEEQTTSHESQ

CAMK2d = CAMK2d (Homo sapiens, UniProt Q13557); test: biochemical; settings: read-out: % enzyme activity, 1 μM; Run 1, Run 2
CDK1/cyclin A = CDK1/cyclin A (Homo sapiens, UniProt P06493); settings: 1 μM; Run 1, Run 2
MLCK2/MYLK2 = MLCK2/MYLK2 (Homo sapiens, UniProt Q9H1R3); settings: 1 μM; Run 1, Run 2
CLK2 = CLK2 (Homo sapiens, UniProt P49760); test: biochemical; settings: read-out: % enzyme activity, 1 μM; Run 1, Run 2
ERBB4/HER4 = ERBB4/HER4 (Homo sapiens, UniProt Q15303); settings: 1 μM; Run 1, Run 2
P38b/MAPK11 = P38b/MAPK11 (Homo sapiens, UniProt Q15759); settings: 1 μM; Run 1, Run 2
PIM3 = PIM3 (Homo sapiens, UniProt Q86V86); test: biochemical; settings: read-out: % enzyme activity, 1 μM; Run 1, Run 2
DYRK1B = DYRK1B (Homo sapiens, UniProt Q9Y463); test: biochemical; settings: read-out: % enzyme activity, 1 μM; Run 1, Run 2
SNARK/NUAK2 = biological target: T2, SNARK/NUAK2 (Homo sapiens, UniProt Q9H093); test: biochemical; settings: read-out: % enzyme activity, 1 μM; Run 1, Run 2
T2 sequence (Q9H093 1-628): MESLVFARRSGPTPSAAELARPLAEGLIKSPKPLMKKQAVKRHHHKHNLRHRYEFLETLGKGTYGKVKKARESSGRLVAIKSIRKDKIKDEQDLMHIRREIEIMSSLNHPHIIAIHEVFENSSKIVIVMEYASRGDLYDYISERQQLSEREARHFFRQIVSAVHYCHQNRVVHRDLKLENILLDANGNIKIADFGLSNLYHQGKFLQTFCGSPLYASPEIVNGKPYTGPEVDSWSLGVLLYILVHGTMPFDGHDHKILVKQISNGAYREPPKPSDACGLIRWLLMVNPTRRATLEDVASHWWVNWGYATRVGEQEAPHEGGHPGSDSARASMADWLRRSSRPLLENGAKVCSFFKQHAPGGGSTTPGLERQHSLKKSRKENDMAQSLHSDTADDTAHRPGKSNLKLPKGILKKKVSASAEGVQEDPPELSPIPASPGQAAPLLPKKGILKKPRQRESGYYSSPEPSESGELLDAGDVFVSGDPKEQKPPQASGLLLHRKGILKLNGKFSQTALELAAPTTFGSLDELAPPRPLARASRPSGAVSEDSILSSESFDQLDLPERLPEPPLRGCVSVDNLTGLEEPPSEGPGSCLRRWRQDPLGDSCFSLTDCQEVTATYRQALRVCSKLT

TRKB = TRKB (Homo sapiens, UniProt Q16620); settings: 1 μM; Run 1, Run 2

HIPK1, sequence (Q86Z02 whole entry): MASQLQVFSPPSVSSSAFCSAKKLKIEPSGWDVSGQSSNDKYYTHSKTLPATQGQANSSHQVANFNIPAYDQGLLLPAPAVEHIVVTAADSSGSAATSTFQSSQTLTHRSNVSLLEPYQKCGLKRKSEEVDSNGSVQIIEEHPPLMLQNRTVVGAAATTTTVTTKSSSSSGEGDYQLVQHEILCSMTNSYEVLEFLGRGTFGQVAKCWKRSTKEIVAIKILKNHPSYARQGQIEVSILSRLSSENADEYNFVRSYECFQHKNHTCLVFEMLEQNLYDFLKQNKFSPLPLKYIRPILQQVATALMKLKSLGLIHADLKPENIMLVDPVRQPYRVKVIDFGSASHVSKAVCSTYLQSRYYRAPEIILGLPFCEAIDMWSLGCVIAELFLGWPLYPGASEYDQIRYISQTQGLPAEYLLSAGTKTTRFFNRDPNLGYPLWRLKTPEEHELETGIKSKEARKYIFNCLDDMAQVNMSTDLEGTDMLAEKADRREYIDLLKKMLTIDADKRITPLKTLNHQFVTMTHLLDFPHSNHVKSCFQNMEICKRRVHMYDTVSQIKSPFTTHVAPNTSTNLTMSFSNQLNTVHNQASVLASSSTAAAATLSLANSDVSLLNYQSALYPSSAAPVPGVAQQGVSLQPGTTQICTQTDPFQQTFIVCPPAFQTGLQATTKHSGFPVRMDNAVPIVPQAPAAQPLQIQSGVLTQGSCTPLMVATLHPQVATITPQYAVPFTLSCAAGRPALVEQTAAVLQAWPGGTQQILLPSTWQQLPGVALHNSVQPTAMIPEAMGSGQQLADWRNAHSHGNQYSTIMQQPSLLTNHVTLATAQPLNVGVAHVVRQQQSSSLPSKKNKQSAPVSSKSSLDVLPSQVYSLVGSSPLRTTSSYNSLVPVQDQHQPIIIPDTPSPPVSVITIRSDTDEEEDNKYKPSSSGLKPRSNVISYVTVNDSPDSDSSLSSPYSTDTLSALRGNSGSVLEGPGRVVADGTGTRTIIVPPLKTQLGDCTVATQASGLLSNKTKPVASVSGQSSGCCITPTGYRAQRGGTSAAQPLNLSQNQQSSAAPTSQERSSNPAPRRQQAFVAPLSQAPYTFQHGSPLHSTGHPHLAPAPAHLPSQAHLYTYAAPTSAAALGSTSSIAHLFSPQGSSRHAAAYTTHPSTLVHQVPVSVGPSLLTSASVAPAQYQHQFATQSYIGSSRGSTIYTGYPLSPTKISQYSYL
DYRK1B, sequence (Q9Y463 whole entry): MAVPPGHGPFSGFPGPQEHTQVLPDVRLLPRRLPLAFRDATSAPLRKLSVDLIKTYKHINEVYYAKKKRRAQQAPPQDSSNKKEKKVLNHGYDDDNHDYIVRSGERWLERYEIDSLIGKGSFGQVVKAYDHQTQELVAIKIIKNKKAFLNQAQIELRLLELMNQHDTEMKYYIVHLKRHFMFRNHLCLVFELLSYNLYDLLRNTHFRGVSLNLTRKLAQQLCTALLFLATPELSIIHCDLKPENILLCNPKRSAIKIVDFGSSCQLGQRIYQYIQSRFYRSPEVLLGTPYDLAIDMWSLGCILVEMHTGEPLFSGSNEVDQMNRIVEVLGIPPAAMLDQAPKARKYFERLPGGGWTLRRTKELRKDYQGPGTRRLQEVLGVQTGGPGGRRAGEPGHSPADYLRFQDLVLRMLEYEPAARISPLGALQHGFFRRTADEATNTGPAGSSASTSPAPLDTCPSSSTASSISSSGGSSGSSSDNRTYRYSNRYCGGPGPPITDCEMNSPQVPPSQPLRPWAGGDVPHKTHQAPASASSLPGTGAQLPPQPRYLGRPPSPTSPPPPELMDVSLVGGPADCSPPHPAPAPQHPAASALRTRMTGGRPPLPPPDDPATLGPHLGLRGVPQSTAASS
FGFR1, sequence (P11362 22-822): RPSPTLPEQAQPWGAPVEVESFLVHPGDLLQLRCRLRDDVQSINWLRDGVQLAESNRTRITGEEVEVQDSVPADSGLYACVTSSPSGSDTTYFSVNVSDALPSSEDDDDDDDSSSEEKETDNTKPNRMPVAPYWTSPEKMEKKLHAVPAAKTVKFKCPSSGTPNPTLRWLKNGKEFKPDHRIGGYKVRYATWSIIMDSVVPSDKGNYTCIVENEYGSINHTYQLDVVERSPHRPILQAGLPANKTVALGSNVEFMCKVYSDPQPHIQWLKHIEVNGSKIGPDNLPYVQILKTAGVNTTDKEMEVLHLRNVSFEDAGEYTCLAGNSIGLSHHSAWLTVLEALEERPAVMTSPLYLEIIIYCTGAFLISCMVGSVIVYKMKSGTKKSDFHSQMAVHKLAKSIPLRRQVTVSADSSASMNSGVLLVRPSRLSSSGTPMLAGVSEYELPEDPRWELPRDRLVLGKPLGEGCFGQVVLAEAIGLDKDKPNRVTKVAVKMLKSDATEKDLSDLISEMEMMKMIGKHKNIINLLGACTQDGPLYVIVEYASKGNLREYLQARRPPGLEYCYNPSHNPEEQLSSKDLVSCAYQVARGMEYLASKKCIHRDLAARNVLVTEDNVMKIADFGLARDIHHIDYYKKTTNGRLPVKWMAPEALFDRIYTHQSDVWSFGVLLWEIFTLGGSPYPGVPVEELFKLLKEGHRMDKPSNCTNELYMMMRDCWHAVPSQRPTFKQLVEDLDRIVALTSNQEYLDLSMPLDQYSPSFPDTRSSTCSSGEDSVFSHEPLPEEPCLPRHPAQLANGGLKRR
P38b/MAPK11, sequence (Q15759 whole entry): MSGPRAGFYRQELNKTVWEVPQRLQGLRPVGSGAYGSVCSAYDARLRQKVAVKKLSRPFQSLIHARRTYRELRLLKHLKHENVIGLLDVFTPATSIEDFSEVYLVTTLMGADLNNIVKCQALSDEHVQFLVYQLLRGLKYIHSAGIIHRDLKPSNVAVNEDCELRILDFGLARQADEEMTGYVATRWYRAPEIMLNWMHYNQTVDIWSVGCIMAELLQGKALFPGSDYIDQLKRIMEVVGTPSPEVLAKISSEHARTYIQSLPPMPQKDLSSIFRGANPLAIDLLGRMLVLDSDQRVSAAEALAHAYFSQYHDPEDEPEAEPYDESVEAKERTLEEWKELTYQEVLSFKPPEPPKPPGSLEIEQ
CDK1/cyclin A, sequence (P20248 whole entry): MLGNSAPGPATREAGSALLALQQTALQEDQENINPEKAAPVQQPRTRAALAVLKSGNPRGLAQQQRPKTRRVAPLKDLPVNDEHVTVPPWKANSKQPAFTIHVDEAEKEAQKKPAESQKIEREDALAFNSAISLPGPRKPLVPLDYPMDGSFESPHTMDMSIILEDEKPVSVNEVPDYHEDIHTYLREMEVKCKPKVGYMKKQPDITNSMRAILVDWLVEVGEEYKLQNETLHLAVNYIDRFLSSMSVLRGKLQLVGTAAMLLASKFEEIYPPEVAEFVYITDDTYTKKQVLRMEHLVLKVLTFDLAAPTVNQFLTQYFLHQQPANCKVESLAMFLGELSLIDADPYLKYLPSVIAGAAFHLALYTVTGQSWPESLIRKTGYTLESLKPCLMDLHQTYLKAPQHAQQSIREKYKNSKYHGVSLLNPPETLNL
CDK1/cyclin A, sequence (P06493 whole entry): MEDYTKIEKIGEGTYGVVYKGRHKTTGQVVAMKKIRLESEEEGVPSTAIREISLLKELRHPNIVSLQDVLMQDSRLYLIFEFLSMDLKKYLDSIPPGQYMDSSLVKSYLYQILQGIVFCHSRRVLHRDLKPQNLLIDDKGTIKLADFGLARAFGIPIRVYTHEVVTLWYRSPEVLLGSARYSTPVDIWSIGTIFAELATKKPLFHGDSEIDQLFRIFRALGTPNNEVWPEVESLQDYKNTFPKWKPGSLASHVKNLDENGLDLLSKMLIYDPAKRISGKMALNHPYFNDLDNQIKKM

Compound	Papp_AB (Caco-2 cells)	Papp_BA (Caco-2 cells)	remaining activity at 1 µM (FGFR1)	% enzyme activity (PKCa)	remaining activity at 1 µM (HIPK1)	remaining activity at 1 µM (MAPKAPK5/PRAK)	% enzyme activity at 1 μM (ALK6/BMPR1B)	remaining activity at 1 µM (CAMK2d)	% enzyme activity (CDK1/cyclin A)	% enzyme activity (MLCK2/MYLK2)	% enzyme activity at 1 μM (SIK2)	remaining activity at 1 µM (CLK2)	% enzyme activity (ERBB4/HER4)	% enzyme activity (P38b/MAPK11)	remaining activity at 1 µM (PIM3)	remaining activity at 1 µM (DYRK1B)	remaining activity at 1 µM (SNARK/NUAK2)	% enzyme activity (TRKB)
COc1cc(-c2cncc(-c3ccc(N4CCN(C)CC4)cc3)c2C)cc(F)c1C(N)=O [Compound 26a, 2-Fluoro-6-methoxy-4-(4-methyl-5-(4-(4-methylpiperazin-1-yl)phenyl)pyridin-3-yl)benzamide]	5.5 10^-6 cm/s	16.2 10^-6 cm/s	97.4%	89.62%	106%	93.2%	18.2% and 17%	95.1%	92.50%	66.59%	32% and 30.7%	91.7%	99.40%	92.20%	100%	40.6%	91.6%	99.94%
COc1cc(-c2cncc(-c3ccc(N4C[C@@H](C)N(C)[C@@H](C)C4)cc3)c2C)cc(F)c1C(N)=O [Compound 26c, 2-Fluoro-6-methoxy-4-(4-methyl-5-(4-((3R,5S)-3,4,5-trimethylpiperazin-1-yl)phenyl)pyridin-3-yl)benzamide]	4.3 10^-6 cm/s	14.5 10^-6 cm/s	101%	89.76%	99.9%	94.7%	30.2% and 30.1%	96.2%	89.52%	82.74%	43.9% and 43.5%	90.3%	93.88%	95.51%	107%	59.2%	94%	98.44%
